Experimental data reported in patent US8410170B2, “Use of isothiocyanates compounds in treating prostatic diseases and skin cancer” (Wuxi JC Pharmaceutical Technology Co., Ltd., priority 2005, dated 2013).
Entries after “also recorded” stand apart in the source; their conditions may differ. Like-named read-outs stand apart in the source and are kept apart here.

Legend:
B16 mouse melanoma cells = experiment: MTT cell growth inhibition, B16 melanoma; assay type: cell-based
Experimental: B16 mouse melanoma cells at exponential growth phase were digested by 0.25% trypsin, adjusted to the density of 3˜5×10^4/mL by adding the above working RPMI 1640 medium, sed into 96-well dishes at 150 μl per well, under normal culture conditions mentioned above. […] Equal volume of the working RPMI 1640 medium was added into the wells of the control group. Each group had four wells. After incubation, discarded the supernatant, added 150 μl D-Hanks per well, washed, discarded the supernatant. After adding 100 μl MTT (0.5 mg/mL), incubated for another 4 hrs. Discarded the supernatant, added 150 μl DMSO, kept at 37° C. for 10 mins. Absorbance was measured at wavelength of 570 nm.

Sp1 = target: T1, Sp1 (Homo sapiens, UniProt P08047); experiment: Mobility gel shift assay (EMSA) of Sp1-DNA binding; assay type: cell-based; settings: AD cells exposed 24 hrs
T1 construct: endogenous in cells; host or cells: LNCaP AD cells, nuclear extract
T1 sequence (P08047 whole entry): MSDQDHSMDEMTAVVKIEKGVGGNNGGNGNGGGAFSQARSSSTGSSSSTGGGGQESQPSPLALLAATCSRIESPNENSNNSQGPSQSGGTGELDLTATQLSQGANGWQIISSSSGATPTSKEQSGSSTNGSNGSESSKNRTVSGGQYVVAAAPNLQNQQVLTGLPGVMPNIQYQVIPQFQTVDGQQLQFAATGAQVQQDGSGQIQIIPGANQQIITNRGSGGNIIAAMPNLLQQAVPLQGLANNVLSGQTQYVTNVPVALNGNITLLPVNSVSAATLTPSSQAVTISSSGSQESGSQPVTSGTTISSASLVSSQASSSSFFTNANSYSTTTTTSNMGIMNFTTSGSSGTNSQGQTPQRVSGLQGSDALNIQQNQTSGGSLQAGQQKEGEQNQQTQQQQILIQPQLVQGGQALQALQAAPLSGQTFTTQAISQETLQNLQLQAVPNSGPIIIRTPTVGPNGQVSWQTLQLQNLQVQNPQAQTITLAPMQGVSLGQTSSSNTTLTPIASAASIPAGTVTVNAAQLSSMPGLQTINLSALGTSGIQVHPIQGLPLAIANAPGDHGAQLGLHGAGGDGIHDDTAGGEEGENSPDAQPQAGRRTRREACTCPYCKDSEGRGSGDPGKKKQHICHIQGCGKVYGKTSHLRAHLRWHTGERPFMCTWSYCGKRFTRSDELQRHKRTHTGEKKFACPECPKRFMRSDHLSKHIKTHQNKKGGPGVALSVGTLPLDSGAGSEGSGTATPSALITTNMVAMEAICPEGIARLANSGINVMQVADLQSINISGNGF
Experimental: EMSA was performed according to modern technology. […] The extraction of nuclear proteins was performed as described previously (Wang, L. G., Liu, X. M., Kreis, W., and Budman, D. R. Down-regulation of prostate-specific antigen expression by finasteride through inhibition of complex formation between androgen receptor and steroid receptor-binding consensus in the promoter of the PSA gene in LNCaP cells. Cancer Res, 57: 714-719, 1997). Five μg of nuclear proteins was reacted for 30 minutes at room temperature with the [^32P]-labeled Sp1 oligonucleotide or their corresponding mutants oligonucleotide probe in binding buffer containing […] dIdC to increase the specificity of the reaction. The reaction mixtures were then subjected to electrophoresis in 8% native polyacrylamide gel(PAGE). The binding complexes were visualized by exposing the dried gel to X-ray film.

GSTP1 = experiment: Western blot to detect GSTP1 protein in LNCaP cells; assay type: cell-based, human; settings: LNCaP cells exposed 24 hrs
Experimental: Western blot to detect GSTP1 protein (FIG. 1): […] The cells were harvested, washed and total cellular proteins were extracted as described previously (Wang, […], et al. […] Cancer Res 61(20): 7544-51, 2001). Fifty μg cellular extracts were separated on a SDS-PAGE, electro-transferred to nitrocellulose filters, and immunoblotted initially with antibodies against GSTP1. The same membranes were stripped and re-probed with β-actin for loading control. The result was recorded by ECL films.

[1] = test system: human prostate cancer cell line LNCaP; experiment: MTT and SRB cell growth assay, LNCaP; assay type: cell-based
Experimental: MTT and SRB method as described in the reference (Kreis, Budman et al. 1997). Briefly, human prostate cancer cells grown exponentially were aliquoted into 96-well plates at a density of 5000 cells/200 μl per well. Twenty-four hrs after the incubation, the cells were exposed for three or seven days to serial dilutions of indicated isothiocyanate. After the incubation, 100 μl of the medium was removed from each of the wells and 50 μl solution of 3-(4,5-dimethyl-thiazol-2-yl)-2,5-diphenyltetrazolium bromide (MTT) was added, the cells were incubated for an additional 4 hrs and then 200 μl of 0.04 N HCl-isopropanol was added to each well to dissolve the black formazan precipitates. The absorbance was measured at wavelength 540 nm. For SRB method, remove the medium after 72 hrs. The cells on 96-well dishes were fixed with 10% trichloride acetic acid for 1 hr, air-dried for 24 hrs. The cells were then stained with 50 μl of SRB (sulforhodamine B) for […]. After extensive washes with 1% acetic acid for 5 times, air-dried, the purple protein-SRB complex was dissolved in 200 μl 10 mM Tris-HCl buffer (pH 10.0), and the absorbance was measured at the wavelength of 540 and 630 nm. The percent of cell survival (T/C%) were calculated based on the results of test groups to that of the control group. The semi-exponential curves of the percent of cell survival (T/C%) to the drug concentrations (FIG. 8) and IC50 were obtained by using Sigma-plot program.

PSA = experiment: Western blot to detect PSA in LNCaP cells; assay type: cell-based, human; settings: 24 hrs
Experimental: The cells were harvested, washed and total cellular proteins were extracted as described previously (as Example 2). Fifty μg proteins were then subjected to electrophoresis in SDS-PAGE, electro-transferred to nitrocellulose filters, and immunoblotted initially with antibodies against AR, Sp1, and PSA. The same membranes were stripped and re-probed with β-actin for loading control. The result was recorded by ECL films.

[2] = test system: xenograft B16 mouse tumor; settings: 15 days
Experimental: The B16 mouse melanoma cells at exponential growth phase were suspended in PBS. […] Adjusted the suspension to a cell concentration of approximately 1×10^7/ml. 0.2 ml of the suspension were transplanted subcutaneously into right axillary subcutis for passaging.
Under sterile condition the xenograft B16 mouse tumor in mice was stripped from axillary subcutis. After cutting by scissors, the tumor with saline (1:3) was ground in a glass homogenizer. Monocell suspension was made with saline. […] Then adjusted the suspension to a cell density of approximately 1×10^7/ml with saline. 0.2 ml were transplanted subcutaneously into right axillary subcutis of each mouse. After transplanting, randomly divided the mouse into 5 groups, 12 each.
Tumors were taken out, sizes and weights were measured, and the percent of inhibitions were calculated.

S=C=NCCc1ccccc1 [PEITC, phenethyl isothiocyanate]
IC50 (B16 mouse melanoma cells; B16 mouse melanoma cell line): 10 to 20 µM | inhibition at 2.5 µM (B16 mouse melanoma cells; Mus musculus, B16, 48 h, 2.5 μmol/L, 48 h, B16): 14.5% | inhibition at 5 µM (B16 mouse melanoma cells; Mus musculus, B16, 48 h, 5.0 μmol/L, 48 h, B16): 27.9% | inhibition at 7.5 µM (B16 mouse melanoma cells; Mus musculus, B16, 48 h, 7.5 μmol/L, 48 h, B16): 36.7% | inhibition at 10 µM (B16 mouse melanoma cells; Mus musculus, B16, 48 h, 10.0 μmol/L, 48 h, B16): 49.2% | inhibition at 12.5 µM (B16 mouse melanoma cells; Mus musculus, B16, 48 h, 12.5 μmol/L, 48 h, B16): 58.4% | inhibition at 15 µM (B16 mouse melanoma cells; Mus musculus, B16, 48 h, 15.0 μmol/L, 48 h, B16): 63.7% | inhibition at 20 µM (B16 mouse melanoma cells; Mus musculus, B16, 48 h, 20.0 μmol/L, 48 h, B16): 77.3% | inhibition at 30 µM (B16 mouse melanoma cells; Mus musculus, B16, 48 h, 30.0 μmol/L, 48 h, B16): 89.6% | inhibition at 40 µM (B16 mouse melanoma cells; Mus musculus, B16, 48 h, 40.0 μmol/L, 48 h, B16): > 96% | binding activity to Sp1 specific oligonucleotide of nuclear proteins (EMSA) (Sp1): significantly reduced | expression of GSTP1 (Western blot) (GSTP1): significantly restored; also recorded: effectively induce | Percent of Cell Survival (T/C %) ([1]; 0.0390 μM, LNCaP): 102.60% | Percent of Cell Survival (T/C %) ([1]; 0.0780 μM, LNCaP): 102.10% | Percent of Cell Survival (T/C %) ([1]; 0.1562 μM, LNCaP): 88.10% | Percent of Cell Survival (T/C %) ([1]; 0.3125 μM, LNCaP): 82.25% | Percent of Cell Survival (T/C %) ([1]; 0.6250 μM, LNCaP): 82.25% | Percent of Cell Survival (T/C %) ([1]; 1.2500 μM, LNCaP): 78.12% | Percent of Cell Survival (T/C %) ([1]; 2.5000 μM, LNCaP): 30.24% | Percent of Cell Survival (T/C %) ([1]; 5.0000 μM, LNCaP): 10.06% | Percent of Cell Survival (T/C %) ([1]; 10.0000 μM, LNCaP): 1.52% | Percent of Cell Survival (T/C %) ([1]; 20.0000 μM, LNCaP): 0.56% | IC50 ([1]; Homo sapiens, LNCaP, MTT and SRB, read-out: IC50, growth inhibition): 0.8 to 1.5 µM | inhibitory effect on growth of human prostate cancer cells stronger than B16 cells ([1]; LNCaP versus B16): 8-10 times | expression of PSA (Western blot) (PSA): significantly inhibited | Changes in Body Weight ([2]; PEITC 70 mg/kg/d gavage (Example 13-16)): 9.78 ± 4.28 g | Average of Tumor Weight ([2]; PEITC 70 mg/kg/d gavage): 1.23 ± 0.68 g | Inhibition ([2]; PEITC 70 mg/kg/d gavage): 39.23% | Changes in Body Weight ([2]; PEITC 120 mg/kg/d gavage (Example 13-16)): 6.34 ± 3.42 g | Average of Tumor Weight ([2]; PEITC 120 mg/kg/d gavage): 0.91 ± 0.23**∇ g | Inhibition ([2]; PEITC 120 mg/kg/d gavage): 58.54%
